Laboratory results taken from patent US12643894B2, “BCL-2 family proteins modulating compounds for cancer treatment” (CENTRE REGIONAL DE LUTTE CONTRE LE CANCER FRANCOIS BACLESSE, priority 2020, dated 2026).

Assays:
Mcl-1 = biological target: T1, Mcl-1 (Homo sapiens, UniProt Q07820); experiment: Target expression analysis by western blot (Mcl-1) in IGROV1-R10 cells; type: cell-based; settings: 24 h exposure, 1 μM
T1 construct: endogenous in cells; host or cells: IGROV1-R10 (human platinum-resistant ovarian carcinoma)
Experimental: (§1) Human platinum resistant ovarian carcinoma cells IGROV1-R10 were used. This cell line was grown in RPMI 1640 medium supplemented with 2 mM Glutamax™, 25 mM HEPES, 10% fetal calf serum, and 33 mM sodium bicarbonate (Fisher Scientific, Illkirch, France). Cells were maintained at 37° C. in a humid atmosphere with 5% C02. Cells were seeded in 25 cm^2 flasks. After 24 h, exponentially growing cells were exposed to 1 μM of compounds for 24 h. CRBN-PBM1-001 targeting both Mcl-1 and CRBN and Pyridoclax were designed and synthetized by the CERMN (Centre d'Etudes et de Recherche sur le Médicament de Normandie) and dissolved in DiMethyl SulfOxide (DMSO, Sigma-Aldrich).
(§2) Cells were rinsed with ice-cold PBS, suspended in a lysis buffer [RIPA: NaCl 150 mM, Tris (pH 8) 50 mM, Triton X100 1%, PMSF 4 mM, EDTA 5 mM, NaF 10 mM, NaPPi 10 mM, Na3VO4 1 mM, aprotinin 0.5 μL/mL and 4.6 mL ultra-pure water] and incubated on ice for 30 min. Lysates were collected after centrifugation (13200 g, 10 min, 4° C.) and protein concentrations were determined using the Bradford assay (Bio-Rad, Hercules, USA). Equal amounts of protein (25 μg) were separated by SDS-PAGE on a 4-15% gradient polyacrylamide Mini-PROTEAN®TGX™ precast gel (Bio-Rad). […] The relative intensities of the protein bands were quantified using the ImageJ software, and the values were normalized to the intensities of the respective Actin signals. […]

Bcl-xL = biological target: T2, Bcl-xL (Homo sapiens, UniProt Q07817); experiment: Target expression analysis by western blot (Bcl-xL) in IGROV1-R10 cells; type: cell-based; settings: 24 h exposure, 1 μM
T2 construct: endogenous in cells; host or cells: IGROV1-R10 (human platinum-resistant ovarian carcinoma)
Experimental: as §1, §2

T1 sequence (Q07820 whole entry): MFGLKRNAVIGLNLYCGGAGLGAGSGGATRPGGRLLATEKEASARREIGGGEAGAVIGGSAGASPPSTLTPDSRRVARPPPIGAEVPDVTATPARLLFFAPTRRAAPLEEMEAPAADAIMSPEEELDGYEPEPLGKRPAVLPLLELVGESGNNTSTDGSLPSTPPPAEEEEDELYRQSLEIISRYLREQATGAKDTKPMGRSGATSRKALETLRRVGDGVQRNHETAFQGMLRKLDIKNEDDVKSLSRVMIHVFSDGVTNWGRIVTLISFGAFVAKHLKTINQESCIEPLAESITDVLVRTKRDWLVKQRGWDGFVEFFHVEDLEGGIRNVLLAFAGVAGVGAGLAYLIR
T2 sequence (Q07817 whole entry): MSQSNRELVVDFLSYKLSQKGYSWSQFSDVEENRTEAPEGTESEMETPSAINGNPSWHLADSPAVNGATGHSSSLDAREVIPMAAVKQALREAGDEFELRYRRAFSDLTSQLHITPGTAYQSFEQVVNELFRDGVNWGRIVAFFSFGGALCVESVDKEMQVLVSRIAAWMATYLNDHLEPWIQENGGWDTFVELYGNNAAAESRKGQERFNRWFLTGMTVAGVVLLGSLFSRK

decrease of Mcl-1 expression (Mcl-1; densitometry analysis of western blot normalized to Actin)	Bcl-xL expression (Bcl-xL)	Mcl-1 expression (modulation) (Mcl-1; single agent, western blot)	SMILES
52%	not affected		Cc1cc(-c2ncc(C#CCOCCOCCNc3cccc4c3C(=O)N(C3CCC(=O)NC3=O)C4=O)cc2/C=C/c2ccccc2)cnc1-c1cccnc1 (stereo not drawn) [CRBN-PBM1-001]
		did not modulate	Cc1cc(-c2ncc(-c3cccnc3)cc2/C=C/c2ccccc2)cnc1-c1cccnc1 [Pyridoclax, reference compound]
